The NIST ThermoML archive (doi:10.1016/j.fluid.2018.10.006)

Conditions: Fluid (supercritical or subcritical phases), Coaxial cylinder method

CCCCCC [hexane]
thermal conductivity [W/m/K]
Conditions | 509.85 K | 510.36 K
245 kPa | – | 0.0379
1000 kPa | – | 0.03854
2245 kPa | – | 0.04183
2715 kPa | – | 0.04665
2965 kPa | 0.05466 | –
2970 kPa | 0.05502 | –
2975 kPa | 0.05557 | –
2980 kPa | 0.05557 | –
2985 kPa | 0.05595 | –
2990 kPa | 0.05595 | –
2995 kPa | 0.05651 | –
3000 kPa | 0.0569 | –
3005 kPa | 0.05749 | –
3010 kPa | 0.05788 | –
3015 kPa | 0.05829 | –
3020 kPa | 0.05869 | –
3025 kPa | 0.05975 | –
3030 kPa | 0.05975 | –
3035 kPa | 0.05975 | –
3040 kPa | 0.06085 | –
3045 kPa | 0.0613 | –
3050 kPa | 0.0618 | –
3055 kPa | 0.06256 | –
3060 kPa | 0.06305 | –
3065 kPa | 0.06429 | –
3070 kPa | 0.06507 | –
3080 kPa | 0.06696 | –
3085 kPa | 0.06809 | –
3090 kPa | 0.06955 | –
3095 kPa | 0.07139 | –
3100 kPa | 0.07333 | –
3105 kPa | 0.07573 | –
3110 kPa | 0.07753 | 0.06796
3112 kPa | – | 0.06824
3114 kPa | – | 0.06881
3115 kPa | 0.08101 | –
3116 kPa | – | 0.06939
3118 kPa | – | 0.07027
3120 kPa | 0.08569 | 0.07087
3122 kPa | – | 0.07148
3124 kPa | – | 0.07242
3125 kPa | 0.08932 | –
3126 kPa | – | 0.07338
3128 kPa | – | 0.07403
3130 kPa | 0.09098 | 0.0747
3132 kPa | – | 0.07538
3133 kPa | – | 0.07607
3134 kPa | – | 0.07624
3135 kPa | 0.09203 | –
3137 kPa | – | 0.0784
3138 kPa | – | 0.07915
3139 kPa | – | 0.07991
3140 kPa | 0.08826 | 0.08056
3141 kPa | – | 0.08119
3142 kPa | – | 0.08199
3143 kPa | – | 0.08268
3144 kPa | – | 0.0833
3145 kPa | 0.08512 | 0.08393
3146 kPa | – | 0.08457
3147 kPa | – | 0.08501
3148 kPa | – | 0.08552
3150 kPa | 0.0829 | 0.08631
3151 kPa | – | 0.08656
3152 kPa | – | 0.08673
3153 kPa | – | 0.08695
3154 kPa | – | 0.08709
3155 kPa | 0.08149 | 0.087
3156 kPa | – | 0.08691
3157 kPa | – | 0.08682
3158 kPa | – | 0.08656
3159 kPa | – | 0.08634
3160 kPa | 0.07984 | 0.08604
3161 kPa | – | 0.08582
3162 kPa | – | 0.08548
3163 kPa | – | 0.08518
3164 kPa | – | 0.08476
3166 kPa | – | 0.08393
3168 kPa | – | 0.0832
3170 kPa | 0.07755 | 0.08248
3172 kPa | – | 0.08173
3174 kPa | – | 0.08088
3176 kPa | – | 0.08019
3178 kPa | – | 0.07941
3180 kPa | 0.07646 | 0.07883
3182 kPa | – | 0.07826
3184 kPa | – | 0.07767
3186 kPa | – | 0.07716
3188 kPa | – | 0.07654
3190 kPa | 0.07505 | 0.076
3192 kPa | – | 0.07563
3194 kPa | – | 0.07525
3196 kPa | – | 0.07489
3198 kPa | – | 0.07452
3200 kPa | 0.07436 | 0.07416
3202 kPa | – | 0.0738
3204 kPa | – | 0.07362
3206 kPa | – | 0.07337
3208 kPa | – | 0.07309
3210 kPa | 0.07368 | 0.07292
3212 kPa | – | 0.07274
3214 kPa | – | 0.0724
3216 kPa | – | 0.0724
3218 kPa | – | 0.07206
3220 kPa | 0.07319 | 0.07206
3222 kPa | – | 0.07189
3225 kPa | – | 0.07175
3228 kPa | – | 0.07155
3230 kPa | 0.07264 | –
3240 kPa | 0.07251 | –
3250 kPa | 0.07211 | –
3260 kPa | 0.07181 | –
3270 kPa | 0.07177 | –
3280 kPa | 0.07145 | –
3290 kPa | 0.07134 | –
3300 kPa | 0.07091 | –
3310 kPa | 0.07096 | –
3320 kPa | 0.07054 | –
3330 kPa | 0.07035 | –
3340 kPa | 0.06992 | –
3390 kPa | 0.06989 | –
3400 kPa | 0.06989 | –
3450 kPa | 0.06947 | –
3500 kPa | 0.06961 | –
3600 kPa | 0.06975 | –
3800 kPa | 0.07031 | –
4000 kPa | 0.07061 | –
4200 kPa | 0.07105 | –
4400 kPa | 0.07134 | –
4600 kPa | 0.07179 | –
4800 kPa | 0.07215 | –
5000 kPa | 0.07254 | –
5200 kPa | 0.07285 | –
5400 kPa | 0.07315 | –
5600 kPa | 0.07355 | –
5800 kPa | 0.07393 | –
6000 kPa | 0.07421 | –
6200 kPa | 0.07453 | –
6400 kPa | 0.07484 | –
6600 kPa | 0.07514 | –
6800 kPa | 0.07543 | –
7000 kPa | 0.0757 | –
7200 kPa | 0.07596 | –
7400 kPa | 0.07619 | –
7600 kPa | 0.07646 | –
7800 kPa | 0.07673 | –
8000 kPa | 0.07679 | –
8200 kPa | 0.07703 | –
8500 kPa | 0.07741 | –
9000 kPa | 0.07802 | –
9500 kPa | 0.07856 | –
10000 kPa | 0.0791 | –
